Experimental data taken from US8420627B2, “Nasal, wound and skin formulations and methods for control of antibiotic-resistant staphylococci and other gram-positive bacteria” (priority 2009, dated 2013).
“Also recorded” adds a separate entry of the source. Like-named read-outs stand apart in the source and are kept apart here.

Assays:
Staphylococcus = settings: cited from earlier work
MRSA = assay: Topical treatment of MRSA lesions in patients (case examples); assay type: in vivo, human; settings: treatment before the formulation ointment; single patients
Text: EXAMPLES OF SUCCESSFUL TREATMENT OF MRSA LESIONS USING THE NOVEL FORMULATIONS OF THE INVENTION ARE PROVIDED BELOW

[1] = tested on: Staphylococcus aureus MRSA, ATCC 33591; assay: In vitro time-kill, one minute contact; assay type: cell-based; settings: for CFU Recovered: Initial Count 5.6 × 10^6
Description: (§1) Dodecanol and glycerol monolaurate were diluted to 2,000 micrograms/mL and then diluted to the following concentrations: Dodecanol: 100 micrograms/mL and glycerol monolaurate: 250 micrograms/mL. Each challenge organism was confirmed by Gram stain and colony morphology. […] Log reductions and percent reductions presented in Tables VII and VIII below were calculated using the following equations: […]
The nasal formulation of the invention was tested against S. aureus MRSA, ATCC 33591. The contact time for the formulation with the bacteria was one minute, after which time, an 8.3 log reduction in bacterial count was observed.
The hand and body wash formulation of the invention was tested against S. aureus MRSA, ATCC 33591 and MDR Klebsiella pneumoniae ATCC CI-2004.

[2] = tested on: Staphylococcus aureus VISA (Vancomycin intermediate sensitivity) ATCC 700699; assay: in vitro Minimum Inhibitory Concentration (MIC), growth/no growth in dilution tubes; assay type: cell-based; settings: for MIC: Staphylococcus aureus, read-out: MIC (Minimum Inhibitory Concentration); for Growth or No Growth: key: Growth (+); No Growth (0)
Description: (§2) Now reported are in vitro Minimum Inhibitory Concentrations (MIC) for dodecanol against Staphylococcus aureus MRSA, ATCC 33591, Staphylococcus aureus VISA (Vancomycin intermediate sensitivity) ATCC 700699, and Enterococcus faecalis ATCC 51299 (formerly Streptococcus faecalis VREF (vancomycin resistant)). One tenth of a cc of dodecanol was diluted with 50 cc of polyethylene glycol 400 and 449.9 cc of sterilized deionized water, followed by five doubling dilutions. […] When combined with the other components of the formulation, a synergistic effect is seen such that bactericidal activity is still maintained even when the concentration of dodecanol is reduced to 20 μg/mL.
(§3) Now reported are in vitro Minimum Inhibitory Concentrations (MIC) for glycerol monolaurate against Staphylococcus aureus MRSA, ATCC 33591, Staphylococcus aureus VISA (Vancomycin intermediate sensitivity) ATCC 700699 and Vancomycin resistant Enterococcus faecalis ATCC 51299 (formerly Streptococcus faecalis VRSF). […] When combined with the other components of the formulation a synergistic effect is seen such that bactericidal activity is still maintained even when the concentration of glycerol monolaurate is reduced to 15 μg/mL.

[3] = tested on: Vancomycin resistant Enterococcus faecalis ATCC 51299; assay: as above; assay type: cell-based; for Growth or No Growth: key: Growth (+); No Growth (0)
Description: as §2, §3

[4] = tested on: Enterococcus faecalis ATCC 51299; assay: In vitro time-kill, one minute contact; assay type: cell-based; settings: for CFU Recovered: Initial Count 5.6 × 10^6
Description: as §1

[5] = tested on: Staphylococcus aureus VISA, ATCC 700699; assay: In vitro time-kill, one minute contact; assay type: cell-based; settings: for CFU Recovered: Initial Count 5.6 × 10^6
Description: as §1

[6] = Irritation of mucous membranes; settings: low concentrations (83 micrograms/mL)
[7] = tested on: Staphylococcus aureus MRSA, ATCC 33591; assay: in vitro Minimum Inhibitory Concentration (MIC), growth/no growth in dilution tubes; assay type: cell-based; settings: for Concentration of the component at which bactericidal activity is still maintained in the three-component combination: dodecanol, glycerol monolaurate and benzoic acid combined; for MIC of Glycerol monolaurate in two-component combination: combined with 40 μg/mL Dodecanol; for Growth or No Growth: key: Growth (+); No Growth (0)
Description: as §2, §3
The Minimum Inhibitory Concentration (MIC) for benzoic acid was determined against Staphylococcus aureus MRSA.
The MIC for dodecanol was experimentally determined to be about 83 micrograms/mL, the MIC for glycerol monolaurate was experimentally determined to be about 62.5 micrograms/mL, and the MIC for benzoic acid was experimentally determined to be about 1250 micrograms/mL. […] When a third component, the organic acid benzoic acid, was added to the formulation, the MICs for all three were much lower.

S. aureus = settings: Glycerol Esters of Fatty Acids; cited from earlier work
[8] = Glycerol Monolaurate at 250 μg/mL

Structure (SMILES): CCCCCCCCCO [C-9]
- Effective Bactericidal Concentration of Primary Alcohols against Staphylococcus (Staphylococcus): 200 Micrograms/mL

Structure (SMILES): CCCCCCCCCCCO [C-11]
- Effective Bactericidal Concentration of Primary Alcohols against Staphylococcus (Staphylococcus): 25 Micrograms/mL

Structure (SMILES): C/C(=C\C(=O)OCCCCCCCCC(=O)O)C[C@@H]1OC[C@H](C[C@@H]2O[C@H]2[C@@H](C)[C@H](C)O)[C@@H](O)[C@H]1O [mupirocin]
- Clinical outcome of prior treatment of MRSA lesions (MRSA): the MRSA was still present in the patient's sinuses; also recorded: unsuccessfully treated

Structure (SMILES): CCCCCCCCCCCCO [Dodecanol, 1-dodecanol]
- % Reduction ([1]; Dodecanol at 100 μg/mL): 100%
- Log Reduction ([1]; Dodecanol at 100 μg/mL): 6.75
- CFU Recovered ([1]; Dodecanol at 100 μg/mL): <5 × 10^0 CFU per mL
- MIC ([2]; S. aureus VISA, dodecanol alone): 83 µg/mL
- Growth or No Growth ([2]; final concentration 2.53125 μg/mL, S. aureus VISA): +
- Growth or No Growth ([2]; final concentration 5.0625 μg/mL, S. aureus VISA): +
- Growth or No Growth ([2]; final concentration 10.125 μg/mL, S. aureus VISA): +
- Growth or No Growth ([2]; final concentration 20.25 μg/mL, S. aureus VISA): +
- Growth or No Growth ([2]; final concentration 41.5 μg/mL, S. aureus VISA): +
- Growth or No Growth ([2]; final concentration 83 μg/mL, S. aureus VISA): 0
- MIC ([3]; Enterococcus faecalis, ATCC 51299 / VRE, E. faecalis VRE, dodecanol alone, read-out: MIC (Minimum Inhibitory Concentration)): 83 µg/mL
- Growth or No Growth ([3]; final concentration 2.53125 μg/mL, E. faecalis VRE): +
- Growth or No Growth ([3]; final concentration 5.0625 μg/mL, E. faecalis VRE): +
- Growth or No Growth ([3]; final concentration 10.125 μg/mL, E. faecalis VRE): +
- Growth or No Growth ([3]; final concentration 20.25 μg/mL, E. faecalis VRE): +
- Growth or No Growth ([3]; final concentration 41.5 μg/mL, E. faecalis VRE): +
- Growth or No Growth ([3]; final concentration 83 μg/mL, E. faecalis VRE): 0
- % Reduction ([4]; Dodecanol at 100 μg/mL): 100%
- Log Reduction ([4]; Dodecanol at 100 μg/mL): 7.04
- CFU Recovered ([4]; Dodecanol at 100 μg/mL): <5 × 10^0 CFU per mL
- % Reduction ([5]; Dodecanol at 100 μg/mL): 100%
- Log Reduction ([5]; Dodecanol at 100 μg/mL): 7.18
- CFU Recovered ([5]; Dodecanol at 100 μg/mL): <5 × 10^0 CFU per mL
- Effective Bactericidal Concentration of Primary Alcohols against Staphylococcus (Staphylococcus): 12.5 Micrograms/mL
- Irritating effects on the mucous membranes [6]: no irritating effects
- MIC ([7]; Staphylococcus aureus, S. aureus MRSA, dodecanol alone, read-out: MIC (Minimum Inhibitory Concentration)): 83 µg/mL
- MIC of Dodecanol in two-component combination ([7]; combined with 30 μg/mL Glycerol monolaurate, S. aureus MRSA): 40 μg/mL Dodecanol
- Concentration of the component at which bactericidal activity is still maintained in the three-component combination ([7]; MRSA): 20 µg/mL
- Growth or No Growth ([7]; final concentration 2.53125 μg/mL, S. aureus MRSA): +
- Growth or No Growth ([7]; final concentration 5.0625 μg/mL, S. aureus MRSA): +
- Growth or No Growth ([7]; final concentration 10.125 μg/mL, S. aureus MRSA): +
- Growth or No Growth ([7]; final concentration 20.25 μg/mL, S. aureus MRSA): +
- Growth or No Growth ([7]; final concentration 41.5 μg/mL, S. aureus MRSA): +
- Growth or No Growth ([7]; final concentration 83 μg/mL, S. aureus MRSA): 0

Structure (SMILES): CCCCCCCCCCCCCO [C-13]
- Effective Bactericidal Concentration of Primary Alcohols against Staphylococcus (Staphylococcus): >800 Micrograms/mL

Structure (SMILES): CCCCCCCCO [C-8]
- Effective Bactericidal Concentration of Primary Alcohols against Staphylococcus (Staphylococcus): 800 Micrograms/mL

Structure (SMILES): CCCCCCCCCCCCC(=O)OCC(O)CO (centres unmarked) [13 Carbon Mono, Tridecanoyl monoglyceride]
- Minimum inhibitory concentration for Staphylococcus (S. aureus): No Inhibition

Structure (SMILES): CCCCCCCCCCCC(=O)OCC(O)CO (centres unmarked) [Glycerol Monolaurate, glycerol monolaurate]
- % Reduction [1, 8]: 100%
- Log Reduction [1, 8]: 6.75
- CFU Recovered [1, 8]: <5 × 10^0 CFU per mL
- Minimum inhibitory concentration for Staphylococcus (S. aureus): 250 micrograms/mL
- MIC [2]: 62.5 µg/mL
- Growth or No Growth ([2]; final concentration 31.25 micrograms/mL, S. aureus VISA): +
- Growth or No Growth ([2]; final concentration 62.5 micrograms/mL, S. aureus VISA): 0
- Growth or No Growth ([2]; final concentration 125 micrograms/mL, S. aureus VISA): 0
- Growth or No Growth ([2]; final concentration 250 micrograms/mL, S. aureus VISA): 0
- MIC ([3]; Enterococcus faecalis, ATCC51299, read-out: MIC (Minimum Inhibitory Concentration)): 125 µg/mL
- Growth or No Growth ([3]; final concentration 31.25 micrograms/mL, Enterococcus faecalis): +
- Growth or No Growth ([3]; final concentration 62.5 micrograms/mL, Enterococcus faecalis): +
- Growth or No Growth ([3]; final concentration 125 micrograms/mL, Enterococcus faecalis): 0
- Growth or No Growth ([3]; final concentration 250 micrograms/mL, Enterococcus faecalis): 0
- % Reduction [4, 8]: 100%
- Log Reduction [4, 8]: 7.04
- CFU Recovered [4, 8]: <5 × 10^0 CFU per mL
- % Reduction [5, 8]: 100%
- Log Reduction [5, 8]: 7.1
- CFU Recovered [5, 8]: <5 × 10^0 CFU per mL
- MIC (Minimum Inhibitory Concentration) ([7]; S. aureus MRSA, glycerol monolaurate alone): 62.5 micrograms/mL
- MIC (Minimum Inhibitory Concentration) ([7]; S. aureus MRSA, glycerol monolaurate alone, listed as Glycerol monolaurate): 62.5 micrograms/mL
- MIC ([7]; Staphylococcus aureus, read-out: MIC (Minimum Inhibitory Concentration), S. aureus MRSA, glycerol monolaurate alone): 62.5 µg/mL
- MIC of Glycerol monolaurate in two-component combination ([7]; S. aureus MRSA, listed as Glycerol monolaurate): 30 μg/mL Glycerol monolaurate
- MIC of Glycerol monolaurate in two-component combination ([7]; S. aureus MRSA, listed as glycerol monolaurate): ~30 µg/mL
- Concentration of the component at which bactericidal activity is still maintained in the three-component combination ([7]; MRSA): 15 µg/mL
- Growth or No Growth ([7]; final concentration 31.25 micrograms/mL, S. aureus MRSA): +
- Growth or No Growth ([7]; final concentration 62.5 micrograms/mL, S. aureus MRSA): 0
- Growth or No Growth ([7]; final concentration 125 micrograms/mL, S. aureus MRSA): 0
- Growth or No Growth ([7]; final concentration 250 micrograms/mL, S. aureus MRSA): 0

Structure (SMILES): O=C(O)c1ccccc1 [Benzoic Acid, benzoic acid]
- Growth or No Growth ([7]; Benzoic Acid 625 μg/mL, S. aureus MRSA, Average CFU/mL 8.9 × 10^6): +
- Growth or No Growth ([7]; Benzoic Acid 1,250 μg/mL, S. aureus MRSA, Average CFU/mL 8.9 × 10^6): 0
- Growth or No Growth ([7]; Benzoic Acid 2,500 μg/mL, S. aureus MRSA, Average CFU/mL 8.9 × 10^6): 0
- Growth or No Growth ([7]; Benzoic Acid 5,000 μg/mL, S. aureus MRSA, Average CFU/mL 8.9 × 10^6): 0
- Growth or No Growth ([7]; Benzoic Acid 10,000 μg/mL, S. aureus MRSA, Average CFU/mL 8.9 × 10^6): 0
- MIC of Benzoic Acid in combination ([7]; Dodecanol (20 μ/mL) and Glycerol Monolaurate (15 μ/mL) held constant, MRSA): <312.5 µg/mL
- MIC ([7]; S. aureus MRSA, Average CFU/mL 8.9 × 10^6, benzoic acid alone): 1250 µg/mL
- MIC ([7]; Staphylococcus aureus, S. aureus MRSA, Average CFU/mL 8.9 × 10^6, benzoic acid alone): 1250 µg/mL
- Concentration of the component at which bactericidal activity is still maintained in the three-component combination ([7]; MRSA): 312.5 µg/mL

Structure (SMILES): CCCCCCCCCCO [C-10]
- Effective Bactericidal Concentration of Primary Alcohols against Staphylococcus (Staphylococcus): 50 Micrograms/mL
